In publication PMC11329750 (Clinical and Translational Science, 2024):

Key:
[1] = cited from earlier work
CYP3A [2] = assay: Intravenous midazolam microdose; type: in vivo, human
CYP3A [3] = assay: Oral midazolam microdose; type: in vivo, human; conditions: for F GMR: GMR (90% CI); for bioavailability: F (absolute bioavailability)
CYP3A [4] = conditions: 900 mg SJW daily, same brand; cited from earlier work
CYP3A [5] = assay: Limited-sampling strategy; conditions: human, in vivo, po, 30 ug
[6] = 900 mg SJW of another brand; absence of autoinduction; cited from earlier work
[7] = SJW 1800 + rifampin 600 for 7 days vs SJW 1800

For `CO[C@H]1/C=C/O[C@@]2(C)Oc3c(C)c(O)c4c(O)c(c(/C=N/N5CCN(C)CC5)c(O)c4c3C2=O)NC(=O)/C(C)=C\C=C\[C@H](C)[C@H](O)[C@@H](C)[C@@H](O)[C@@H](C)[C@H](OC(C)=O)[C@@H]1C` [rifampin], the “daily doses at which maximum induction is already reached” value [1] is given as 300 to 600 mg.

In the case of `Cc1ncc2n1-c1ccc(Cl)cc1C(c1ccccc1F)=NC2` [midazolam], the “further increase of midazolam CL i.v.” value (CYP3A [2]; [7]) is reported as 1.43 fold, the AUC(0-inf) (CYP3A [2]; human, plasma, intravenous, 10 ug) is reported as 0.287 ng·h/mL and the AUC(0-inf) (CYP3A [2]; human, plasma, iv, 10 ug) is reported as 0.334 ng·h/mL. For the same compound, the Vd (CYP3A [2]; human, plasma, iv, 10 ug) was 148 L, the half-life (CYP3A [2]; human, plasma, iv, 10 ug) was 2.97 h and the “F GMR” value (CYP3A [3]; 30 μg midazolam orally, SJW 1800 + rifampin 600 vs baseline) was 0.2070 (0.1704–0.2516). The “F GMR” value (CYP3A [3]; 30 μg midazolam orally, SJW 1800 vs baseline) was 0.4437 (0.3735–0.5271), the CL/F (CYP3A [3]; 30 μg midazolam orally, baseline, GM (95% CI)) was 1649 (1290–2109) mL min^−1 and the “further increase of midazolam CL orally” value (CYP3A [3]; [7]) was 3.06 fold. It also gave an AUC(0-inf) (CYP3A [3]; human, plasma, po, 30 ug) of 0.303 ng·h/mL, an AUC(0-t) (CYP3A [3]; human, plasma, po, 30 ug) of 0.258 ng·h/mL and a Cmax (CYP3A [3]; human, plasma, po, 30 ug) of 0.139 ng/mL. It also gave a Vd/F (CYP3A [3]; human, plasma, po, 30 ug) of 422 L, a bioavailability (CYP3A [3]; human, plasma, po, 30 ug, 30 μg midazolam orally, SJW 1800 mg/day for 14 days, GM (95% CI)) of 15.6% and a bioavailability (CYP3A [3]; human, plasma, po, 30 ug, 30 μg midazolam orally, baseline, GM (95% CI)) of 35.1%. For the same compound, the “fold increase of midazolam clearance with a regular midazolam dose” value (CYP3A [4]) was 4.22 and the AUC (CYP3A [5]) was 0.0657 ng·h/mL.

For `NC(=O)N1c2ccccc2C=Cc2ccccc21` [carbamazepine], the “reduction of exposure to single carbamazepine doses” value [6] is given as 21%.
